We go through 43 compounds from the Deep4Chem optical property database.

The data set can be described thus: photoluminescence quantum yield (fraction); solvent given as SMILES.
Setting [1] is: in c1cc(-c2cccc(-n3c4ccccc4c4ccccc43)c2)cc(-n2c3ccccc3c3ccccc32)c1.

`Fc1c(-c2nnc(-c3ccccc3)o2)c(-n2c3ccccc3c3ccccc32)c(F)c(-n2c3ccccc3c3ccccc32)c1-n1c2ccccc2c2ccccc21` had a photoluminescence quantum yield (in Cc1ccccc1) of 0.2.

As for `COc1ccc2ncccc2c1`, the photoluminescence quantum yield (in CC#N) came out at 0.071, the photoluminescence quantum yield (in CCCC#N) amounted to 0.075 and the photoluminescence quantum yield (in Cc1ccccc1) worked out at 0.014.

For `c1ccc2c(c1)Sc1ccc(-n3c4ccccc4c4ccccc43)cc1S2`, the photoluminescence quantum yield is 0.04 (in CC1CCCCC1) and 0.1 under setting [1].

On to `Cc1ccccc1-c1c2ccc(=[N+]3CCCC3)cc-2oc2cc(N3CCCC3)ccc12`, for which the photoluminescence quantum yield by setting is: (in CCO) 0.95; (in ClCCl) 1.

On to `O=C1/C(=C\c2ccc(N(c3ccccc3)c3ccccc3)cc2)S(=O)(=O)c2ccccc21`, for which the photoluminescence quantum yield by setting is: (in C1CCOC1) 0.037; (in C1COCCO1) 0.324; (in CC#N) 0.002; (in CC(C)=O) 0.003; (in CCOC(C)=O) 0.036; (in CN(C)C=O) 0.024. Besides, the photoluminescence quantum yield reads like this: (in CO) 0.021; (in CS(C)=O) 0.032; (in Cc1ccccc1) 0.559; (in ClC(Cl)Cl) 0.142; (in ClCCl) 0.022.

`CC1(C)Cc2c(c3ccccc3c3nc4ccccc4nc23)O1` came in with a photoluminescence quantum yield (in C1CCCCC1) of 0.082; a photoluminescence quantum yield (in C1CCOC1) of 0.13; a photoluminescence quantum yield (in CN(C)C=O) of 0.44; a photoluminescence quantum yield (in CO) of 0.37; a photoluminescence quantum yield (in ClC(Cl)Cl) of 0.26; a photoluminescence quantum yield (in c1ccccc1) of 0.2.

`CC(C)(C)c1ccc2c3ccccc3c3cncnc3c2c1` came in with a photoluminescence quantum yield (in ClCCl) of 0.03.

Where the note is “in Cc1ccccc1”, `Cc1ccc(-n2c3ccc(-c4ccc(-c5nc6ccccc6n5-c5ccccc5)cc4)cc3c3cc(-c4ccc(-c5nc6ccccc6n5-c5ccccc5)cc4)ccc32)cc1` had a photoluminescence quantum yield of 0.65.

`CC/[NH+]=c1\cc2oc3cc(NCCOC(=O)C(NC(=O)OC(C)(C)C)C(C)C)c4ccccc4c3nc-2cc1C` (configuration not stated) displayed a photoluminescence quantum yield (in CCO) of 0.32 and a photoluminescence quantum yield (in O) of 0.26.

`COc1ccc(C2=CC3=C(c4c(C)cc(C)cc4C)c4cc(-c5ccc(OC)cc5)c(-c5ccc(OC)cc5)n4[B-](F)(F)[N+]3=C2c2ccc(OC)cc2)cc1`: the photoluminescence quantum yield reads like this: (in C1CCCCC1) 0.64; (in C1CCOC1) 0.42; (in CC#N) 0.24; (in Cc1ccccc1) 0.51; (in ClCCl) 0.42.

As to `COc1cc2c(cc1OC)C1=C[C@H](c3ccc(Cl)cc3)C3(C(C#N)=C(C#N)N1CC2)c1ccccc1-c1ccccc13`, for the setting “in ClCCl”, the photoluminescence quantum yield was 0.00044.

In turn, `N#Cc1c(-n2nnc3c2CCC2C(CC3)[C@@H]2CO)n([C@H]2C[C@H](O)[C@@H](CO)O2)c2ncnc(N)c12` (some centres not stated) yielded a photoluminescence quantum yield (in CO) of 0.014.

The compound `CCC(CC)n1c2ccccc2c2cc3c(cc21)c1ccccc1n3C(CC)CC` returned a photoluminescence quantum yield (in ClC(Cl)Cl) of 0.16.

For `CCN(CC)c1ccc2cc(-c3nc4cc(C(=O)Nc5cccc(OC)c5)ccc4o3)c(=O)oc2c1`, the photoluminescence quantum yield (in ClCCl) came out at 0.21.

Take `CCC1=C(C)C2=C(c3c4ccccc4c(C)c4ccccc34)c3c(C)c(CC)c(C)n3[B-](F)(F)[N+]2=C1C`: the photoluminescence quantum yield came to 0.054 (in CC#N); 0.883 (in CCCCCC); 0.314 (in CCO); 0.111 (in CN(C)C=O); 0.863 (in Cc1ccccc1); 0.667 (in ClCCl).

For the compound `CCCCCCN(CCCCCC)c1ccc(C#Cc2ccc(C#Cc3ccc(-c4ccc(C#Cc5ccc(C#Cc6ccc(N(CCCCCC)CCCCCC)cc6)cc5)cc4)cc3)cc2)cc1`, under “in Cc1ccccc1”, the photoluminescence quantum yield worked out at 0.82.

For the compound `CN(C)c1[se]c(-c2ccccc2)nc1-c1ccccc1`, the photoluminescence quantum yield (in ClC(Cl)Cl) was 0.029.

Turning to `COc1ccc(/C=C/c2nc3c4ccccc4c4ccccc4c3o2)cc1`, the photoluminescence quantum yield (in CC#N) was determined as 0.35.

Regarding `Cc1ccc2c(c1)C1(c3ccccc3Oc3ccccc31)c1cc(C)ccc1N2c1ccc(-c2nc(-c3ccccc3)cc(-c3ccccc3)n2)cc1`, under “in O=P(c1ccccc1)(c1ccccc1)c1ccc2oc3ccc(P(=O)(c4ccccc4)c4ccccc4)cc3c2c1”, the photoluminescence quantum yield was found to be 0.69.

On to `CC(C)c1cc(C(C)C)c(B2c3ccccc3Oc3cc(-n4c5ccccc5c5ccc6c(c7ccccc7n6-c6ccccc6)c54)ccc32)c(C(C)C)c1`, for which the photoluminescence quantum yield by setting is: (in CC(C)c1cc(C(C)C)c(-c2ccc(-n3c4ccccc4n4c5ccccc5nc34)nc2)c(C(C)C)c1) 0.506; (in O=P(c1ccccc1)(c1ccccc1)c1ccccc1Oc1ccccc1P(=O)(c1ccccc1)c1ccccc1) 0.631.

As to `Cc1cc(C)c(B2c3cc(C(C)(C)C)ccc3-c3cccc4cc(C(C)(C)C)cc2c34)c(C)c1`, the photoluminescence quantum yield (in C1CCCCC1) is 0.8.

`CCCCCCN1C(=O)c2cccc3cc(/N=C\c4nc5ccccc5s4)cc(c23)C1=O` had a photoluminescence quantum yield (in ClC(Cl)Cl) of 0.002.

On to `COc1ccccc1-c1cc2c(o1)=CC1=Cc3cc4oc(-c5ccccc5OC)cc4n3[B-](F)(F)[N+]=21`, for which, under “in ClC(Cl)Cl”, the photoluminescence quantum yield was determined as 0.91.

On to `NNC(=O)NNN1C(=O)c2cc(S(=O)(=O)[O-])cc3c(N)c(S(=O)(=O)[O-])cc(c23)C1=O`, for which the photoluminescence quantum yield is, setting by setting: (in C1COCCO1) 0.06; (in CC#N) 0.49; (in CC(C)=O) 0.29; (in CC(C)O) 0.62; (in CCCCCCCCO) 0.75; (in CCO) 0.54. Moreover, the photoluminescence quantum yield is 0.03 (in CCOC(C)=O); 0.25 (in CO); 0.59 (in CS(C)=O); 0.21 (in O); 0.5 (in OCCO); 0.26 (in c1ccncc1).

Regarding `CCCCCCCCCCCCCCCCOc1cc(C#Cc2ccc3ccccc3c2)c(OCCCCCCCCCCCCCCCC)cc1C#Cc1ccc(C=C(C#N)C#N)cc1`, the photoluminescence quantum yield by setting is: (in Brc1ccccc1) 0.43; (in C1CCCCC1) 0.9; (in C1CCOC1) 0.5; (in C1COCCO1) 0.5; (in CCCCCC) 0.87; (in CCCCCCCCO) 0.35. Besides, the photoluminescence quantum yield (in CCCCOCCCC) turned out to be 0.81; the photoluminescence quantum yield (in CCOC(C)=O) was found to be 0.23; the photoluminescence quantum yield (in CCOCC) stood at 0.79; the photoluminescence quantum yield (in Cc1ccccc1) came to 0.82; the photoluminescence quantum yield (in ClC(Cl)(Cl)Cl) came out at 0.81; the photoluminescence quantum yield (in ClC(Cl)Cl) amounted to 0.78. The photoluminescence quantum yield (in ClCCl) is 0.19.

For the compound `C(C#Cc1ccc2ccc3cccc4ccc1c2c34)#Cc1cccc2ccccc12`, the photoluminescence quantum yield was 0.84 (in C1CCCCC1), 0.73 (in CC#N), 0.55 (in CO) and 0.64 (in ClCCl).

As for `COc1cccc(-c2c3ccccc3c3n2[B-](F)(F)[N+]2=Cc4c5ccccc5c(-c5cccc(OC)c5)n4[B-](F)(F)[N+]2=C3)c1`, the photoluminescence quantum yield runs as follows: (in CC#N) 0.24; (in CCCCCC) 0.34; (in CN(C)C=O) 0.27; (in Cc1ccccc1) 0.34; (in ClCCl) 0.36.

Where the note is “in CS(C)=O”, `Cc1ccc(-c2nc3sc4ccccc4c3s2)cc1` yielded a photoluminescence quantum yield of 0.89.

For the compound `CC(=O)[B-]1(C(C)=O)OC(c2ccccc2)=CC(c2ccc3ccccc3c2)=[O+]1`, the photoluminescence quantum yield runs as follows: (in CC#N) 0.52; (in ClC(Cl)(Cl)Cl) 0.58.

`CC1(C)c2ccccc2N(c2ccc3nc4c5ccc(N6c7ccccc7C(C)(C)c7ccccc76)cc5c5cc(N6c7ccccc7C(C)(C)c7ccccc76)ccc5c4nc3c2)c2ccccc21` showed a photoluminescence quantum yield under setting [1] of 0.89.

The compound `Cc1ccc(-c2cnc3nn4ccccc4c3c2)cc1` returned a photoluminescence quantum yield (in C1CCOC1) of 0.29.

For the setting “in Cc1ccccc1”, `Cc1ccc(N2C(c3ccccc3NS(=O)(=O)c3ccc(C)cc3)=NC(c3ccccc3)C2c2ccccc2)cc1` (configuration not stated) gave a photoluminescence quantum yield of 0.004.

`COC(=O)c1cc(OC)ccc1OC` displayed a photoluminescence quantum yield (in CO) of 0.64.

For the compound `CCCCOc1cc2ccccc2c2c1oc1cc3ccccc3cc12`, where the note is “in C1CCOC1”, the photoluminescence quantum yield is 0.63.

`N#Cc1c(-n2c3ccccc3c3cc(I)ccc32)c(C#N)c(-n2c3ccccc3c3cc(I)ccc32)c(-n2c3ccccc3c3cc(I)ccc32)c1-n1c2ccccc2c2cc(I)ccc21` registered a photoluminescence quantum yield (in Cc1ccccc1) of 0.78.

`COc1ccc(N(c2ccc(OC)cc2)c2ccc(-c3ccc(-c4ccc(-c5ccc(-c6ccc(N(c7ccc(OC)cc7)c7ccc(OC)cc7)cc6)s5)c5nsnc45)s3)cc2)cc1` displayed a photoluminescence quantum yield (in ClC(Cl)Cl) of 0.18.

Consider `CCn1c2ccc(-c3cccs3)cc2c2cc(-c3cccs3)ccc21`, for which the photoluminescence quantum yield (in ClCCl) stood at 0.047.

Under “in C1CCCCC1”, `C[Si](C)(C)c1ccc([Si](C)(C)C)c2ccccc12` returned a photoluminescence quantum yield of 0.33.

`O=C1c2cccc3c(-n4c5ccccc5c5ccccc54)ccc(c23)C(=O)N1c1ccccc1`: the photoluminescence quantum yield runs as follows: (in C1CCOC1) 0.032; (in CCCCCC) 0.887; (in ClC(Cl)Cl) 0.198; (in ClCCl) 0.032.

Take `C(=C\c1nc2ccccc2o1)/c1ccccc1`: the photoluminescence quantum yield reads like this: (in C1CCCCC1) 0.05; (in CO) 0.006.

Under setting [1], `CC1(C)c2ccccc2N(c2ccc3c(c2)c2cc(N4c5ccccc5C(C)(C)c5ccccc54)ccc2c2nc4ccccc4nc32)c2ccccc21` had a photoluminescence quantum yield of 0.84.

For `COc1ccc2n1[B-](F)(F)[N+]1=C(SC#N)C=CC1=C2c1ccccc1`, the photoluminescence quantum yield was determined as 0.05 (in CC#N); 0.08 (in CCCCCC); 0.04 (in CCOC(C)=O); 0.05 (in CO); 0.07 (in ClCCl).

For `COc1cc2c(cc1-c1ccc(C#N)cc1)Cc1c3c(c4c(c1-2)-c1cc(OC)c(-c2ccc(C#N)cc2)cc1C4)C(=O)N(CCC(C)C)C3=O`, for the setting “in C1CCOC1”, the photoluminescence quantum yield stood at 0.51.
